Patent US9668473B2, “Process for obtaining biopolymeric nanoparticles containing Azadirachta indica A. Juss. (neem.) oil and extracts, biopolymeric nanoparticles, and powder microparticles” (priority 2013, dated 2017)
Like-named read-outs stand apart in the source and are kept apart here.

How the values were obtained:
[1] = Azadirachtin solubility and dispersion capability in aqueous phase; assay type: physicochemical
Text: This value represents an azadirachtin dispersion capability 13 times greater than its solubility. That is, it is possible to prepare a new formulation for applying Neem extracts and oil with high azadirachtin contents, whereas the surfactant content is kept low (Tween®80=0.5% m/v). It should be clear for those skilled in the art that this value represents a non-limiting example; greater dispersion capabilities are fairly possible according to the extract content used.

[2] = assay type: physicochemical
Description: Reproducibility, Resistance, Recovery, and Storage Stability
Azadirachtin solutions stores at 4° C. were considered stable.

[3] = cited from earlier work

In the case of `C/C=C(\C)C(=O)O[C@H]1C[C@@H](OC(C)=O)[C@@]2(C(=O)OC)CO[C@H]3[C@@H](O)[C@@](C)([C@]45O[C@@]4(C)[C@H]4C[C@@H]5O[C@@H]5OC=C[C@@]54O)[C@H]4[C@]1(CO[C@]4(O)C(=O)OC)[C@@H]32` [Azadirachtin, azadirachtin], the Azadirachtin solubility [1] is listed as 26.0 mg 100 mL^−1, the storage stability [2] is listed as “stable” and the azadirachtin activity ([3]; after 4 hours of sunlight exposure) is listed as roughly 60%. The azadirachtin activity ([3]; after 15 hours of sunlight exposure) was roughly 50%.
